Test results published in patent US6251897A, “6-phenyltetrahydro-1,3-oxazin-2-one derivative and pharmaceutical composition containing the same” (Nikken Chemicals Co., LTD, priority 1996, dated 2001).

Experiments:
Type IV PDE = assay: PDE inhibitory activity, type IV isozyme (3H-cAMP hydrolysis); format: biochemical; settings: partially purified from rat neutrophils, 30° C., 30 minutes
Procedure, shortened: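 Enzyme partially purified from rat neutrophils by ion-exchange chromatography. Reaction in 50 mM Tris-HCl with 5 mM MgCl2, 30 min at 30° C, stopped by boiling; product converted by 5'-nucleotidase and 3H-adenosine counted after ion-exchange separation. IC50 given in M.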

rat neutrophils = assay: Inhibition of super oxide anion release from rat neutrophils (A23187-stimulated chemiluminescence); format: cell-based, rat (Wister); settings: Neutrophil, stimulated with 0.3 μM calcium ionophore A23187, read-out: Inhibitory action of super oxide anion release from rat neutrophils IC50
Description: The release of super oxide anions was measured so as to study the inhibitory effects of the compound on inflammatory leukocytes, that is, neutrophils.
Blood sample was obtained from Wister rats anesthetized with ether. It was superposed on a blood cell separation solution (Polymorphoprep 1.113, made by Naicomet Co. (phonetic)) and the neutrophils were separated by centrifugation. The neutrophils were resuspended in a Hank's balanced salt solution at a concentration of 0.5×10^4 cell/ml. 0.1 mM of Lusigenin and the test substance dissolved in DMSO were added to 2 ml of the cell-suspension. The chemiluminescence generated by stimulation of 0.3 μM calcium ionophore A23187 was measured by a chemiluminescence reader so as to evaluate the release of super oxide anions.

[1] = system: antigen-induced bronchospasm in guinea pig; assay: Inhibitory effect on antigen-induced bronchospasm (Konzett-Roessler, ovalbumin-sensitized); format: in vivo, guinea pig (Hartley male); settings: Cavia porcellus; intravenous, 10 minutes before antigen (0.2 mg/kg OA i.v.); read-out: Action for suppressing antigen-induced bronchospasms ED50
Description: A Hartley male guinea pig was sensitized by intramuscular administration of […] Ovalbumin (OA) on first day and fourth day, and used after 24th day. A trachial canula was introduced in the guinea pig anesthetized with pentobarbital and artificial ventilation was performed 25 to 29 days after the first sensitization. The overflow of the ventilation was measured by the Konzett-Roessler method while 0.2 mg/kg OA were administered intravenously. The test compound was dissolved in polyethylene glycol 400 and intravenously administered 10 minutes before administration of the antigens.

IC50 (Type IV PDE) | IC50 (rat neutrophils) | SMILES | ED50 [1]
10 µM | 8.8 µM | COc1ccc(C2CCNC(=O)O2)cc1OC (stereo not shown) [Compound No. 1, 6-(3,4-dimethoxyphenyl)-3,4,5,6-tetrahydro-2H-1,3-oxazin-2-one] | –
1.2 µM | 0.55 µM | COc1ccc(C2CCNC(=O)O2)cc1OC1CCCC1 (stereo not shown) [Compound No. 2, 6-(3-cyclopentyloxy-4-methoxyphenyl)-3,4,5,6-tetrahydro-2H-1,3-oxazin-2-one] | 0.23 mg/kg
6.8 µM | 2.4 µM | COc1ccc(C2(C)CCNC(=O)O2)cc1OC (stereo not shown) [Compound No. 5, 6-(3,4-dimethoxyphenyl)-6-methyl-3,4,5,6-tetrahydro-2H-1,3-oxazin-2-one] | 0.3 mg/kg
19 µM | 4.1 µM | COc1ccc(C2CCN(C)C(=O)O2)cc1OC (stereo not shown) [Compound No. 8, 6-(3,4-dimethoxyphenyl)-3-methyl-3,4,5,6-tetrahydro-2H-1,3-oxazin-2-one] | –
22 µM | 2.3 µM | COc1ccc(C2CCN(Cc3ccccc3)C(=O)O2)cc1OC (stereo not shown) [Compound No. 9, 3-benzyl-6-(3 4-dimethoxyphenyl)-3,4,5,6-tetrahydro-2H-1,3-oxazin-2-one] | –
1.3 µM | 0.09 µM | COc1ccc(C2CCN(C)C(=O)O2)cc1OC1CCCC1 (stereo not shown) [Compound No. 10, 6-(3-Cyclopentyloxy-4-methoxyphenyl)-3-methyl-3,4,5,6-tetrahydro-2H-1,3-oxazin-2-one] | 0.95 mg/kg
1.4 µM | 0.05 µM | COc1ccc(C2CCN(Cc3ccc(Br)cc3)C(=O)O2)cc1OC1CCCC1 (stereo not shown) [Compound No. 11, 3-(4-bromobenzyl)-6-(3-cyclopentyloxy-4-methoxyphenyl)-3,4,5,6-tetrahydro-2H-1,3-oxazin-2-one] | 3.1 mg/kg
1.3 µM | – | COc1ccc(C2(C)CCNC(=O)O2)cc1OCC(C)C (stereo not shown) [Compound No. 81, 6-[4-methoxy-3-(2-methylpropoxy)phenyl]-6-methyl-3,4,5,6-tetrahydro-2H-1,3-oxazin-2-one] | 0.028 mg/kg
1.9 µM | – | COc1ccc(C2(C)CCN(C)C(=O)O2)cc1OCC(C)C (stereo not shown) [Compound No. 82, 3,6-dimethyl-6-[4-methoxy-3-(2-methylpropoxy)phenyl]-3,4,5,6-tetrahydro-2H-1,3-oxazin-2-one] | 0.045 mg/kg
